{"source": "paper PMC10706420", "about": "“A New Drug Discovery Platform: Application to DNA Polymerase Eta and Apurinic/Apyrimidinic Endonuclease 1” (International Journal of Molecular Sciences, 2023)", "key": {"APE1": {"molecular_target": "T1, APE1 (Homo sapiens, UniProt P27695)", "T1 construct": "made in house", "T1 sequence (P27695 whole entry)": "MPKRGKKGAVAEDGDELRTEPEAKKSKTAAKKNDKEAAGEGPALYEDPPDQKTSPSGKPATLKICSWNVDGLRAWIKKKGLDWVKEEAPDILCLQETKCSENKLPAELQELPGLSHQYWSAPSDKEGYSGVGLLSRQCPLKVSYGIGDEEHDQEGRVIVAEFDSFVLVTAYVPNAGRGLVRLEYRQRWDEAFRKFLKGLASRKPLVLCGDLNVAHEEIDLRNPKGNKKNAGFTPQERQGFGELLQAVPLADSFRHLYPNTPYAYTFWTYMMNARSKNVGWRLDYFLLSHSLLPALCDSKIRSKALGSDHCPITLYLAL", "assay": "in-house high-throughput in vitro biochemical assay for APE1 endonuclease activity (fluorescence-based)"}, "Endonuclease IV": {"molecular_target": "Endonuclease IV (Escherichia coli, UniProt P0A6C1)", "conditions": "from IC50 for APE1 and EndoIV"}}, "note": "Where two headings read alike, the source gives them in different places."}
{"smiles": "CC(=O)Nc1sc2c(c1-c1nc3ccccc3s1)CCN(C(C)C)C2", "note": "[Inhibitor III]", "values": [{"measurement": "IC50", "setting": "APE1", "value": 2000, "unit": "nM"}, {"measurement": "IC50", "setting": "APE1; listed as APE1 Inhibitor III", "value": "~2000", "unit": "nM"}, {"measurement": "selectivity for APE1 over EndoIV", "setting": "Endonuclease IV", "value": 3, "unit": "fold"}]}
